Assay results taken from article PMC10490123, “Synthesis and In Vitro Anticancer Activity of Novel 4-Aryl-3-(4-methoxyphenyl)-1-phenyl-1H-pyrazolo[3,4-b]pyridines Arrest Cell Cycle and Induce Cell Apoptosis by Inhibiting CDK2 and/or CDK9” (Molecules, 2023).
“Also recorded” adds a separate entry of the source.

What was measured:
HCT-116 cells [1] = assay: Cell cycle analysis (PI flow cytometry), HCT-116; type: cell-based; conditions: HCT-116, compound at its IC50
Method: (§1) Cell cycle arrest of cervical cancer cells Hela, breast cancer cells MCF7, and colon cancer cells HCT-116 were assessed for compounds 9a and 14g at their IC50.

[2] = MTT cytotoxicity on normal cell line WI-38; type: cell-based; conditions: human, WI-38 normal cells, MTT assay, mean ± SD of three experiments, read-out: In Vitro Cytotoxicity on WI-38 (IC50)
HCT-116 cells [3] = assay: Annexin V/PI apoptosis assay, HCT-116; type: cell-based; conditions: HCT-116, IC50 concentration, 24 h
CDK9 = target: T1, CDK9 (Homo sapiens, UniProt P50750); assay: In vitro CDK9 enzyme inhibition assay (BPS Bioscience kit, chemiluminescence); type: biochemical
T1 construct: purchased BPS Bioscience
T1 sequence (P50750 whole entry): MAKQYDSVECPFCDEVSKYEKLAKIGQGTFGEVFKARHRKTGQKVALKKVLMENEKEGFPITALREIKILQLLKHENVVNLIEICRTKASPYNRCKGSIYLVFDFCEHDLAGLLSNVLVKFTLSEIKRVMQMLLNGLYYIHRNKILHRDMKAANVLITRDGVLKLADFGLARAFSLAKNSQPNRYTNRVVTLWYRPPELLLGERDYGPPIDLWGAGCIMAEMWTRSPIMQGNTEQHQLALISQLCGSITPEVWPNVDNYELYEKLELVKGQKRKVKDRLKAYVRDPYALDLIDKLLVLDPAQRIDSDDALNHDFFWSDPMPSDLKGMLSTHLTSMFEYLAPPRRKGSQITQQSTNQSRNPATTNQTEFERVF
T1 sequence (O60563 whole entry partner): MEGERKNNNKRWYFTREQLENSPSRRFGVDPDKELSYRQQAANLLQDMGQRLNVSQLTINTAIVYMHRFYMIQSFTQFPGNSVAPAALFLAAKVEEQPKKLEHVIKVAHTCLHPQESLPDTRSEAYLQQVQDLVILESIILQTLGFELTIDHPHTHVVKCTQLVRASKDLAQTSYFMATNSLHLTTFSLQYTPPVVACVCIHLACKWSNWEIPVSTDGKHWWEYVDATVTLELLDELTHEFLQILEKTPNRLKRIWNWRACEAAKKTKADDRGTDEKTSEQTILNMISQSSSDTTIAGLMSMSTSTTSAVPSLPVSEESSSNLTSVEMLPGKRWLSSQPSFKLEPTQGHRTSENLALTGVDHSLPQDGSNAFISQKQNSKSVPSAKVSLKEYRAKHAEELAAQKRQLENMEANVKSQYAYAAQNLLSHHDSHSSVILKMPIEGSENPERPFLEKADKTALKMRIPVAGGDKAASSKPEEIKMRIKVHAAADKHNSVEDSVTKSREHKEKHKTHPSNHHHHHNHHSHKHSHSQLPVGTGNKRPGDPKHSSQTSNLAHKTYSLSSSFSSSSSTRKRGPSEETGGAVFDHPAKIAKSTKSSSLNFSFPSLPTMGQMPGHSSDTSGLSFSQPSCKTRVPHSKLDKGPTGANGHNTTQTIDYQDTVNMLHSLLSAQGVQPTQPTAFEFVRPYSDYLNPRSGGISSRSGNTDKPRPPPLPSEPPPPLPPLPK
Method: (§2) The CDK in vitro inhibitory activity of 9a–h and 14a–h toward CDK2 and CDK9 was performed using CDK Assay Kit (BPS Bioscience, USA) at different dilutions of 30, 10, 3, 1, 0.3, 0.1, 0.03, and 0.01 µM, measuring the chemiluminescence using BioTek™ Synergy2 Microplate Reader (BioTek, Santa Clara, CA, USA).

Hela cancer cell line = assay: MTT cytotoxicity assay, cervical cancer Hela; type: cell-based; conditions: Homo sapiens, mean ± SD of three experiments
Method: (§3) The cytotoxicity of compounds 9a–h and 14a–h against three cell lines, namely, cervical cancer Hela, breast cancer MCF7, and colon HCT-116, compared with doxorubicin as a reference compound was performed using MTT assay. The cytotoxic concentration (IC50 in µM) is illustrated in Table 1.
(§4) Standard MTT colorimetric assay was applied to test the IC50 of compounds 9a–h and 14a–h against three cell lines, namely, cervical cancer Hela, breast cancer MCF7, and colon HCT-116, compared with doxorubicin as a reference compound with the typical reported methodology of MTT colorimetric assay.

MCF7 cells [4] = assay: Cell cycle analysis (PI flow cytometry), MCF7; type: cell-based
Method: as §1

MCF7 cells [5] = assay: Annexin V/PI apoptosis assay, MCF7; type: cell-based; conditions: MCF7, IC50 concentration, 24 h
MCF7 cancer cell line = assay: MTT cytotoxicity assay, breast cancer MCF7; type: cell-based; conditions: Homo sapiens, mean ± SD of three experiments
Method: as §3, §4

CDK2 = target: T2, CDK2 (Homo sapiens, UniProt P24941); assay: In vitro CDK2 enzyme inhibition assay (BPS Bioscience kit, chemiluminescence); type: biochemical
T2 construct: purchased BPS Bioscience
Method: as §2

HCT-116 cancer cell line = assay: MTT cytotoxicity assay, colon HCT-116; type: cell-based; conditions: Homo sapiens, mean ± SD of three experiments, read-out: IC50 HCT116
Method: as §3, §4

COc1ccc(-c2nn(-c3ccccc3)c3nc(-c4ccccc4)c(C#N)c(-c4ccc(O)cc4)c23)cc1 [Compound 14g, 4-(4-Hydroxyphenyl)-3-(4-methoxyphenyl)-1,6-diphenyl-1H-pyrazolo[3,4-b]pyridine-5-carbonitrile]
Cell cycle Comment (HCT-116 cells [1]): arresting cell cycle at S phase; also recorded: cell growth arrest@ S | DNA Content %G2/M (HCT-116 cells [1]; control 17.64): 13.24% | DNA Content %S (HCT-116 cells [1]; control 26.49): 34.82% | DNA Content %G0-G1 (HCT-116 cells [1]; control 55.87): 51.94% | IC50 [2]: 21.8 ± 2.96 µM | melting point: 295 to 297 °C | Apoptosis Late (HCT-116 cells [3]; control 0.19): 6.95% | Apoptosis Early (HCT-116 cells [3]; control 0.63): 16.01% | Necrosis (HCT-116 cells [3]; control 1.69): 3.75% | Apoptosis Total (HCT-116 cells [3]; total equals early + late + necrosis, control 2.51): 26.71% | IC50 (CDK9): 0.801 ± 0.041 µM | IC50 (Hela cancer cell line): 12.7 ± 1.53 µM | Cell cycle Comment (MCF7 cells [4]; MCF7, compound at its IC50): arresting cell cycle for MCF7 at G2/M phase; also recorded: cell growth arrest@ G2/M | DNA Content %G2/M (MCF7 cells [4]; MCF7, compound at its IC50, control 14.86): 24.94% | DNA Content %S (MCF7 cells [4]; MCF7, compound at its IC50, control 39.02): 33.81% | DNA Content %G0-G1 (MCF7 cells [4]; MCF7, compound at its IC50, control 46.12): 41.25% | DNA accumulation at G2/M phase relative to control (MCF7 cells [4]; MCF7, control 14.86%): 1.68 fold | Apoptosis Late (MCF7 cells [5]; control 0.27): 7.55% | Apoptosis Early (MCF7 cells [5]; control 0.44): 13.07% | Necrosis (MCF7 cells [5]; control 0.78): 2.27% | Apoptosis Total (MCF7 cells [5]; total equals early + late + necrosis, control 1.49): 22.89% | IC50 (MCF7 cancer cell line): 4.66 ± 0.38 µM | IC50 (CDK2): 0.46 ± 0.024 µM | IC50 (HCT-116 cancer cell line): 1.98 ± 0.17 µM
